Data set [1] is described as follows: Dispersibility test of water dispersible granules (WG). In kind it is physicochemical. As to conditions: summary of Table 4. The protocol: 0.3077 g of calcium carbonate and 0.092 g of magnesium oxide were dissolved in a small amount of diluted hydrochloric acid, then heated and boiled on a sand bath to remove hydrochloric acid. Distilled water was added to the remaining solution to make 10 liters in total. Subsequently, 100 ml of the obtained solution was put into a 100 ml stoppered measuring cylinder, and kept at 20° C. in a temperature-controlled room. 100 mg samples of S4 to S6 were put into the measuring cylinder, and left to stand for 30 seconds. The measuring cylinder was then turned upside down repeatedly at a rate of once a second, whereupon the turning-down frequency (number of turns) needed for disintegrating the whole water-dispersible material was counted.

The format of data set [2] is physicochemical. As for the experimental part:
Samples (S1, S2 and S3) were stored at 54° C. for 1 month, 3 months and 6 months. The procedures were followed according to CIPAC MT 46.3. The concentration of Pyroxasulfone was measured at the end of each storage time by HPLC. The aggregation was measured by observation. The original concentration of Pyroxasulfone in each formulation was 40%.

Here are results for one compound from US20220256852A1, “NOVEL CRYSTALLINE FORM OF PYROXASULFONE, METHODS FOR ITS PREPARATION AND USE OF THE SAME” (ROTAM AGROCHEM INTERNATIONAL COMPANY LIMITED, priority 2021, published 2022).

Structures are written as SMILES.

Take `Cn1nc(C(F)(F)F)c(CS(=O)(=O)C2=NOC(C)(C)C2)c1OC(F)F` [3-[[[5-(difluoromethoxy)-1-methyl-3-(trifluoromethyl)-1H-pyrazol-4-yl]methyl]sulfonyl]-4,5-dihydro-5,5-dimethylisoxazole]: the “dispersibility compared with amorphous Pyroxasulfone” value in data set [1] is “significantly higher dispersibility”. For the same compound, the “storage stability compared with amorphous Pyroxasulfone” value in data set [2] is reported as “significantly higher storage stability”. In addition, in data set [2] (summary of Table 5), the “tendency to aggregate during storage” value is on record as “significantly lower tendency to aggregate”.
